The term Km denotes the concentration of substrate that gives half-maximal velocity.

Format in all cases: biochemical
One test addresses T1, VpEAS (Vibrio parahaemolyticus, UniProt Q87Q55).
T1 construct: gene VP1295; recombinant from pET29b in E. coli BL21(DE3), cleared lysate
Put plainly: anion-exchange chromatography of lysate reaction, pppGpp-2S formation. Particulars: 5 mM ATPγS, 1 mM GTPγS, 10 mM MgCl2, 0.1 mM MnCl2, pH 7.5, 37 °C, 5 min.

For test [1], the target named is T2, SaEAS (SaEAS-FLAG, secreted SaEASΔSP-FLAG) (Streptomyces albidoflavus, UniProt A0AA37FDV0).
T2 construct: gene ScoT_12220; full-length gene with FLAG tag overexpressed (ermE* promoter) in S. albidoflavus SM254 delta-SaEAS; signal peptide cleaved on secretion; diluted spent medium used without purification
Put plainly: anion-exchange chromatography, competition of PPi acceptors, Km from calculated acceptor-site occupancy. Particulars: 5 mM ATP, 5 mM free MgCl2, 0.1 mM MnCl2, pH 7.5, 37 °C. An excerpt:
anion-exchange chromatography, competition of PPi acceptors, Km from calculated acceptor-site occupancy on SaEAS (SaEAS-FLAG, secreted SaEASΔSP-FLAG) | we then calculated the acceptor-site occupancy and Km for the non-ATP substrate

For test [2], the target named is T2, SaEAS (SaEAS-FLAG, secreted SaEASΔSP-FLAG). The experiment in a line: anion-exchange chromatography, initial velocity of pppGpp synthesis. Particulars: ATP as PPi donor; 5 mM GTP acceptor, 0.03-1 mM ATP, 5 mM free MgCl2, 0.1 mM MnCl2, pH 7.5, 37 °C, PK/PEP.
The target is the same in test [3]. Put plainly: anion-exchange chromatography, initial velocity of pppApp synthesis. Particulars: ATP as PPi acceptor (second site); 0.5-10 mM ATP as donor and acceptor, 5 mM free MgCl2, 0.1 mM MnCl2, pH 7.5, 37 °C. From the text:
anion-exchange chromatography, initial velocity of pppApp synthesis on SaEAS (SaEAS-FLAG, secreted SaEASΔSP-FLAG) | the Michaelis-Menten relationship provides the Km for ATP as a PPi acceptor

Test [4] has the same target. The experiment in a line: anion-exchange chromatography, competition of PPi acceptors, Km derived from Vmax and Vmax/Km. Particulars: PPi acceptor; ATP donor, 5 mM free MgCl2, 0.1 mM MnCl2, pH 7.5, 37 °C; read-out: Km, acceptor(GTP). From the text:
anion-exchange chromatography, competition of PPi acceptors, Km derived from Vmax and Vmax/Km on SaEAS (SaEAS-FLAG, secreted SaEASΔSP-FLAG) | We next used Vmax(pppGpp) to calculate Km, acceptor(GTP).

T2 sequence (A0AA37FDV0 entry or part of it, stated change not applied): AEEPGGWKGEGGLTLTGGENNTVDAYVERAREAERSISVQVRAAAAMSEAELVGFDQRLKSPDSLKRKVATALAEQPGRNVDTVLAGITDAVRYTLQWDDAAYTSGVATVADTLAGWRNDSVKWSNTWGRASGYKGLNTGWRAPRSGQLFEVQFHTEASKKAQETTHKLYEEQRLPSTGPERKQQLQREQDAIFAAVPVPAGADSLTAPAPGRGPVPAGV
T1 sequence (Q87Q55 entry or part of it): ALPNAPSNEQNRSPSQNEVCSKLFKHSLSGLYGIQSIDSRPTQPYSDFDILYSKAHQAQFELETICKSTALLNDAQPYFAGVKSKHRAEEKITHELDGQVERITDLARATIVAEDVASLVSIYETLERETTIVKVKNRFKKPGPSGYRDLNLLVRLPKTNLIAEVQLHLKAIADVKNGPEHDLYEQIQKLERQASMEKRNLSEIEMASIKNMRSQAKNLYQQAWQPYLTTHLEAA

On to `Nc1ncnc2c1ncn2[C@@H]1O[C@H](COP(=O)(O)OP(=O)(O)OP(O)(O)=S)[C@@H](O)[C@H]1O` [ATPγS], for which the “anion-exchange chromatography of lysate reaction, pppGpp-2S formation” value on VpEAS (PPi donor) is “Reactions were carried out using the non-hydrolyzable thiophosphates ATPγS and GTPγS”.
In the case of `Nc1ncnc2c1ncn2[C@@H]1O[C@H](COP(=O)(O)OP(=O)(O)O)[C@@H](O)[C@H]1O` [ADP], in test [1] (5 mM ADP), the Km was 930 ± 40 µM.
For `Nc1ncnc2c1ncn2[C@@H]1O[C@H](COP(=O)(O)O)[C@@H](O)[C@H]1O` [AMP], the Km in test [1] (5 mM AMP) is 2200 ± 200 µM.
In the case of `Nc1nc2c(ncn2[C@@H]2O[C@H](COP(=O)(O)O)[C@@H](O)[C@H]2O)c(=O)[nH]1` [GMP], in test [1] (0.5 mM GMP), the Michaelis constant (Km) is 64 ± 3 µM.
For the molecule `Nc1ncnc2c1ncn2[C@@H]1O[C@H](COP(=O)(O)OP(=O)(O)OP(=O)(O)O)[C@@H](O)[C@H]1O` [ATP], the Michaelis-Menten constant (Km) in test [2] worked out at 82 µM. Moreover, the “Km, aceptor(ATP)” value in test [3] stood at 1400 µM.
Turning to `Nc1nc2c(ncn2[C@@H]2O[C@H](COP(=O)(O)OP(=O)(O)OP(O)(O)=S)[C@@H](O)[C@H]2O)c(=O)[nH]1` [GTPγS], the “anion-exchange chromatography of lysate reaction, pppGpp-2S formation” value at VpEAS (PPi acceptor) is reported as “VpEAS specifically uses GTPγS as an acceptor nucleotide to produce pppGpp-2S”.
For the molecule `Nc1nc2c(ncn2[C@@H]2O[C@H](COP(=O)(O)OP(=O)(O)OP(=O)(O)O)[C@@H](O)[C@H]2O)c(=O)[nH]1` [GTP], the Km in test [4] amounted to 50 ± 4 µM.

The values are drawn from publication PMC12691689, “Bacteria export alarmone synthetases that produce (p)ppApp and (p)ppGpp” (mBio, 2025).
